PubChem BioAssay AID1963963 (Molecular Pharmacology Branch, DTP, NCI, 2024)
Several values for one entry are separate records, joined by “and”; a condition that tells them apart may be missing. Equal values may be shown once. One block for each compound: values may come before it.

Test system: 958667-338-R-J2-PDC tumor spheroids viability
Test: Anticancer human tumor 958667-338-R-J2-PDC patient-derived colon adenocarcinoma cell line growth inhibition [PI3K]
Details: spheroids with HUVEC and MSC; for viability, T/C: stronger effect = lower value
Source text: Combinatorial screen of targeted agents with the PI3K inhibitors inavolisib, alpelisib, duvelisib, and copanlisib in multi-cell type tumor spheroids
A high-throughput screen of multi-cell type tumor spheroids was designed to identify active combinations of targeted small molecules and PI3K pathway inhibitors. Complex spheroids include a stromal component modeled by human endothelial cells (HUVEC) and fibroblasts modeled by human mesenchymal stem cells (MSCs). The concentration ranges selected for each drug and investigational agent were based upon clinically achievable concentrations if the clinical Cmax of the agent was known.
Compounds. The drugs and investigational agents: inavolisib (NSC800729), alpelisib (NSC765974), duvelisib (NSC772469), copanlisib (NSC816437), ipatasertib (NSC767898), afuresertib (NSC778305), talazoparib (NSC767125), sapanisertib (NSC764658), selumetinib (NSC741078), tovorafenib (DAY101, NSC766906), vemurafenib (NSC761431), ravoxertinib (NSC781343), sotorasib (NSC818433), MRTX1133 (NSC 836407), abemaciclib (NSC 768073), palbociclib (NSC758247), venetoclax (NSC 766270), SY5609 (NSC837396), enzalutamide (NSC755605), and darolutamide (NSC825331), were obtained from the National Cancer Institute (NCI) Developmental Therapeutics Program Chemical Repository. The FDA-approved anticancer drug set is available from the NCI Developmental Therapeutics Program. […] The stock solutions were prepared in dimethyl sulfoxide (DMSO, Sigma-Aldrich, St. Louis, MO, cat. D2650) at 800-fold the tested concentration and stored at -70 degrees C prior to their use. All drugs and investigational agents were tested over a range starting from a high concentration at or near the clinical Cmax and decreasing in half-log increments. If the clinical Cmax for an agent had not been determined, the highest concentration tested was 10 microM.
Cell Culture. All cells were maintained in an incubator at 37 degrees C and 5% CO2 with 95% humidity. The PDC lines were cultured according to standard operating procedures established by the NCI PDMR (https://pdmr.cancer.gov/sops/default.htm). All PDCs were thawed and cultured in Matrigel-coated flasks prepared with a working solution of 1X Ham's F-12 nutrient mix, without supplementation (Invitrogen, Waltham, MA, cat. 11765054), 100 U/mL penicillin-streptomycin (Invitrogen, cat. 15140122), and 2.5% Matrigel (Corning Inc., Corning, NY, cat. 354248) for the first three passages. The 354836-022-R-J1-PDC, 475296-252-R-J1-PDC, and 997726-040-R-J2-PDC lines were cultured in 6A media, which includes advanced DMEM/F-12 (Thermo Fisher Scientific, cat. 12634028), 10 mM HEPES (Thermo Fisher Scientific, cat. 15630080), 1X GlutaMAX supplement (Thermo Fisher Scientific, cat. 35050061), 0.1 mg/mL primocin (InvivoGen, San Diego, CA, cat. ant-pm-2), 10% defined fetal bovine serum, heat inactivated (HyClone Laboratories Inc., Logan, UT, cat. SH30070.03HI), 50% L-WRN conditioned media (ATCC, cat. CRL-3276), 1.25 mM N-Acetyl-L-cysteine (Sigma-Aldrich, cat. A9165), 10 mM nicotinamide (Sigma-Aldrich, cat. N0636), 1X B-27 supplement (Thermo Fisher Scientific, cat. 17504044), 1X N-2 supplement (Thermo Fisher Scientific, cat. 17502048), and 10 microM Y-27632 dihydrochloride (Tocris Bioscience, Bristol, United Kingdom, cat. 1254). The 624824-186-R-J2-PDC line was cultured in 6C/Colon 1B media, which includes all 6A media components plus 50 ng/mL human EGF recombinant protein (Thermo Fisher Scientific, cat. PHG0311). […]

[1] = curve of first compound, second compound 0.0316 µM
[2] = curve of first compound, second compound 0.1 µM
[3] = curve of first compound, second compound 0.316 µM
[4] = curve of first compound, second compound 1 µM
[5] = curve of first compound, second compound 3.16 µM
[6] = curve of first compound, second compound 10 µM
[7] = second compound 0.0316 µM, first compound 0.0316 µM
[8] = second compound 0.0316 µM, first compound 0.1 µM
[9] = second compound 0.0316 µM, first compound 0.316 µM
[10] = second compound 0.0316 µM, first compound 1 µM
[11] = second compound 0.0316 µM, first compound 3.16 µM
[12] = second compound 0.0316 µM, first compound 10 µM
[13] = second compound 0.1 µM, first compound 0.0316 µM
[14] = second compound 0.1 µM, first compound 0.1 µM
[15] = second compound 0.1 µM, first compound 0.316 µM
[16] = second compound 0.1 µM, first compound 1 µM
[17] = second compound 0.1 µM, first compound 3.16 µM
[18] = second compound 0.1 µM, first compound 10 µM
[19] = second compound 0.316 µM, first compound 0.0316 µM
[20] = second compound 0.316 µM, first compound 0.1 µM
[21] = second compound 0.316 µM, first compound 0.316 µM
[22] = second compound 0.316 µM, first compound 1 µM
[23] = second compound 0.316 µM, first compound 3.16 µM
[24] = second compound 0.316 µM, first compound 10 µM
[25] = second compound 1 µM, first compound 0.0316 µM
[26] = second compound 1 µM, first compound 0.1 µM
[27] = second compound 1 µM, first compound 0.316 µM
[28] = second compound 1 µM, first compound 1 µM
[29] = second compound 1 µM, first compound 3.16 µM
[30] = second compound 1 µM, first compound 10 µM
[31] = second compound 3.16 µM, first compound 0.0316 µM
[32] = second compound 3.16 µM, first compound 0.1 µM
[33] = second compound 3.16 µM, first compound 0.316 µM
[34] = second compound 3.16 µM, first compound 1 µM
[35] = second compound 3.16 µM, first compound 3.16 µM
[36] = second compound 3.16 µM, first compound 10 µM
[37] = second compound 10 µM, first compound 0.0316 µM
[38] = second compound 10 µM, first compound 0.1 µM
[39] = second compound 10 µM, first compound 0.316 µM
[40] = second compound 10 µM, first compound 1 µM
[41] = second compound 10 µM, first compound 3.16 µM
[42] = second compound 10 µM, first compound 10 µM
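Also: spheroids exposed to compounds for seven days before readout.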

IC50 [1]: > 10 µM
IC50 [2]: 4.38 µM
IC50 [3]: 1.37 µM
IC50 [4]: 3.2 µM
IC50 [5]: 3.6 µM
IC50 [6]: 1.84 µM
Structure (SMILES): Cn1ncc(Cl)c1-c1cc(C(=O)NC(CN)Cc2cccc(F)c2)sc1Cl (stereo unspecified) + CC(Nc1ncnc2nc[nH]c12)c1cc2cccc(Cl)c2c(=O)n1-c1ccccc1
viability, T/C [7]: 87.7%
viability, T/C [8]: 87.1%
viability, T/C [9]: 100%
viability, T/C [10]: 60.6%
viability, T/C [11]: 60.5%
viability, T/C [12]: 43.4%
viability, T/C [13]: 111%
viability, T/C [14]: 81.1%
viability, T/C [15]: 84.7%
viability, T/C [16]: 64.1%
viability, T/C [17]: 59%
viability, T/C [18]: 37.5%
viability, T/C [19]: 93.7%
viability, T/C [20]: 89.9%
viability, T/C [21]: 82.1%
viability, T/C [22]: 50.7%
viability, T/C [23]: 52.2%
viability, T/C [24]: 37.2%
viability, T/C [25]: 95.6%
viability, T/C [26]: 87.3%
viability, T/C [27]: 97.1%
viability, T/C [28]: 75.9%
viability, T/C [29]: 51.4%
viability, T/C [30]: 39.4%
viability, T/C [31]: 88.4%
viability, T/C [32]: 89.1%
viability, T/C [33]: 85.8%
viability, T/C [34]: 79.7%
viability, T/C [35]: 52.1%
viability, T/C [36]: 32.6%
viability, T/C [37]: 82.3%
viability, T/C [38]: 82.3%
viability, T/C [39]: 65.9%
viability, T/C [40]: 59.4%
viability, T/C [41]: 42.9%
viability, T/C [42]: 28.2%

IC50 [1]: > 10 µM
IC50 [2]: > 10 µM
IC50 [3]: > 10 µM
IC50 [4]: > 10 µM
IC50 [5]: 7.83 µM
IC50 [6]: 8.56 µM
Structure (SMILES): C#Cc1c(F)ccc2cc(O)cc(-c3ncc4c(N5CC6CCC(C5)N6)nc(OCC56CCCN5CC(F)C6)nc4c3F)c12 (stereo unspecified) + CC(Nc1ncnc2nc[nH]c12)c1cc2cccc(Cl)c2c(=O)n1-c1ccccc1
viability, T/C [7]: 104%
viability, T/C [8]: 99.2%
viability, T/C [9]: 109%
viability, T/C [10]: 84.9%
viability, T/C [11]: 97.5%
viability, T/C [12]: 69.7%
viability, T/C [13]: 102%
viability, T/C [14]: 109%
viability, T/C [15]: 86.8%
viability, T/C [16]: 104%
viability, T/C [17]: 85.2%
viability, T/C [18]: 77.5%
viability, T/C [19]: 84%
viability, T/C [20]: 99.3%
viability, T/C [21]: 93.5%
viability, T/C [22]: 92.8%
viability, T/C [23]: 93.9%
viability, T/C [24]: 63.5%
viability, T/C [25]: 77.4%
viability, T/C [26]: 101%
viability, T/C [27]: 90.9%
viability, T/C [28]: 84.8%
viability, T/C [29]: 106%
viability, T/C [30]: 65.1%
viability, T/C [31]: 91.4%
viability, T/C [32]: 94.2%
viability, T/C [33]: 85.3%
viability, T/C [34]: 76.5%
viability, T/C [35]: 73.2%
viability, T/C [36]: 43.6%
viability, T/C [37]: 86.3%
viability, T/C [38]: 83.2%
viability, T/C [39]: 73.1%
viability, T/C [40]: 86.9%
viability, T/C [41]: 71.5%
viability, T/C [42]: 46.4%

IC50 (curve of compound): > 1 µM
Structure (SMILES): CCN1CCN(Cc2ccc(Nc3ncc(F)c(-c4cc(F)c5nc(C)n(C(C)C)c5c4)n3)nc2)CC1
viability, T/C (compound 0.00316 µM): 108% and 102% and 109%
viability, T/C (compound 0.01 µM): 86.7% and 90.8% and 95.2%
viability, T/C (compound 0.0316 µM): 91% and 87.5% and 98.1%
viability, T/C (compound 0.1 µM): 72.1% and 75.9% and 98.9%
viability, T/C (compound 0.316 µM): 78.8% and 76.1% and 79.7%
viability, T/C (compound 1 µM): 74.5% and 70.1% and 72.5%
